Data published in the supplement of paper PMC8253809.

Legend:
HGGX39 [1] = paediatric high-grade glioma line; assay: area under dose-response curve of % growth inhibition (log2 RLU vs DMSO / staurosporine), 1e-11 to 1e-4 M (% x log10 M); higher = more growth inhibition
Procedure, shortened: (§1)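 A 10-point threefold dilution series, mean top concentration 35 μM, was applied in triplicate to patient-derived pHGG/DIPG lines and astrocytes on 1% Geltrex-coated 384-well plates for 7 days (3 days for iAstro) at 37 °C, 5% CO2. Per-plate % activity between solvent and positive controls was calculated from log2-transformed CellTiter-Glo luminescence. Area under the curve followed from the trapezoid rule on a log-logistic fit, or on a smoothing spline when the sigmoid fit failed.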

DIPGX37 [2] = H3.3 K27M diffuse intrinsic pontine glioma line; assay: as above
Procedure, shortened: as §1

HGGX6 = H3.3 G34R paediatric high-grade glioma line; assay: as above
Procedure, shortened: as §1

DIPGX29 = H3.3 K27M diffuse intrinsic pontine glioma line; assay: as above
Procedure, shortened: as §1

DIPGX37 [3] = assay: maximal growth inhibition (yFin) relative to DMSO / staurosporine; higher = more efficacious
Procedure, shortened: (§2)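 A pin tool was used to add a 10-point threefold dilution series (mean top concentration 35 μM), in triplicate, to patient-derived pHGG/DIPG cell lines and astrocyte controls seeded on 384-well plates coated with 1% Geltrex. After 7 days at 37 °C and 5% CO2 (3 days for iAstro), CellTiter-Glo luminescence was log2-transformed, normalised on each plate to % activity relative to negative (solvent) and positive control wells, and pooled. EC50 and maximal response (yFin) were read from the three- or four-parameter log-logistic fit with the lowest AICc.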

DIPGX37 [4] = assay: EC50 (inflection of fitted growth-inhibition curve) (log10 M)
Procedure, shortened: as §2

HGGX39 [5] = assay: maximal growth inhibition (yFin) relative to DMSO / staurosporine; higher = more efficacious
Procedure, shortened: as §2

HGGX39 [6] = assay: EC50 (inflection of fitted growth-inhibition curve) (log10 M)
Procedure, shortened: as §2

With `CCc1ccc(CCOc2ccc(CC3SC(=O)NC3=O)cc2)nc1` (centres undefined) [PIOGLITAZONE] the “area under dose-response curve” value (HGGX39 [1]) was 11.2, the “area under dose-response curve” value (DIPGX37 [2]) was 35.1 and the “area under dose-response curve” value (HGGX6) was 11.5. The “area under dose-response curve” value (DIPGX29) was 10.8.
`c1cc(CN2CCCNCCNCCCNCC2)ccc1CN1CCCNCCNCCCNCC1` [PLERIXAFOR] was tested, and the “area under dose-response curve” value (HGGX39 [1]) was 21, the “area under dose-response curve” value (DIPGX37 [2]) was 32.1 and the “area under dose-response curve” value (HGGX6) was 3.55. The “area under dose-response curve” value (DIPGX29) was 16.6.
For `CCN(CC)CCOC(=O)c1ccc(N)cc1` [PROCAINE], the “area under dose-response curve” value (HGGX39 [1]) was 1.44, the “area under dose-response curve” value (DIPGX37 [2]) was 1.95 and the “area under dose-response curve” value (HGGX6) was 0. The “area under dose-response curve” value (DIPGX29) was 3.12.
For `CCc1nc(N)nc(N)c1-c1ccc(Cl)cc1` [PYRIMETHAMINE], the “area under dose-response curve” value (HGGX39 [1]) was 26.5, the “area under dose-response curve” value (DIPGX37 [2]) was 6.34 and the “area under dose-response curve” value (HGGX6) was 26.9. For the same molecule, the “area under dose-response curve” value (DIPGX29) was 25.
With `Cc1nc(=O)c2cc(CN(C)c3ccc(C(=O)N[C@@H](CCC(=O)O)C(=O)O)s3)ccc2[nH]1` [RALTITREXED] the “area under dose-response curve” value (HGGX39 [1]) was 33.4, the “area under dose-response curve” value (DIPGX37 [2]) was 26.9 and the “area under dose-response curve” value (HGGX6) was 16. The “area under dose-response curve” value (DIPGX29) was 26.5.
With `Nc1cc(F)ccc1NC(=O)/C=C/c1cnn(C/C=C/c2ccccc2)c1` [RGFP966] the maximal growth inhibition (DIPGX37 [3]) was 68.6%, the “area under dose-response curve” value (HGGX39 [1]) was 13.5 and the “area under dose-response curve” value (DIPGX37 [2]) was 66.1. The “area under dose-response curve” value (HGGX6) was 12.3, the “area under dose-response curve” value (DIPGX29) was 17.1 and the “EC50 (log10 M)” value (DIPGX37 [4]) was -4.62.
In the case of `CN(C)C(=O)c1cc2cnc(Nc3ccc(N4CCNCC4)cn3)nc2n1C1CCCC1` [RIBOCICLIB], the maximal growth inhibition (HGGX39 [5]) is reported as 21.8%, the “area under dose-response curve” value (HGGX39 [1]) is reported as 32.5 and the “area under dose-response curve” value (DIPGX37 [2]) is reported as 27.7. The “area under dose-response curve” value (HGGX6) was 17.1, the “area under dose-response curve” value (DIPGX29) was 13.1 and the “EC50 (log10 M)” value (HGGX39 [6]) was -5.39.
With `COc1cc(OC)c2c(=O)[nH]c(-c3cc(C)c(OCCO)c(C)c3)nc2c1` [RVX-208] the “area under dose-response curve” value (HGGX39 [1]) was 8.2, the “area under dose-response curve” value (DIPGX37 [2]) was 2.33 and the “area under dose-response curve” value (HGGX6) was 12. For the same molecule, the “area under dose-response curve” value (DIPGX29) was 5.91.
In the case of `O=C(NCC(=O)N1CCCC1)Nc1ccc2cnccc2c1` [SGC-707], the maximal growth inhibition (HGGX39 [5]) is reported as 58.4%, the “area under dose-response curve” value (HGGX39 [1]) is reported as 31.4 and the “area under dose-response curve” value (DIPGX37 [2]) is reported as 11.8. The “area under dose-response curve” value (HGGX6) was 11.3, the “area under dose-response curve” value (DIPGX29) was 20.9 and the “EC50 (log10 M)” value (HGGX39 [6]) was -4.55.
For `COc1ccc(CCc2nc3cc(-c4c(C)noc4C)ccc3n2C[C@H](C)N2CCOCC2)cc1Cl` [SGC-CBP30], the “area under dose-response curve” value (HGGX39 [1]) was 14, the “area under dose-response curve” value (DIPGX37 [2]) was 13.9 and the “area under dose-response curve” value (HGGX6) was 11.7. For the same molecule, the “area under dose-response curve” value (DIPGX29) was 7.64.
With `CO[C@H]1C[C@@H]2CC[C@@H](C)[C@@](O)(O2)C(=O)C(=O)N2CCCC[C@H]2C(=O)O[C@H]([C@H](C)C[C@@H]2CC[C@@H](O)[C@H](OC)C2)CC(=O)[C@H](C)/C=C(\C)[C@@H](O)[C@@H](OC)C(=O)[C@H](C)C[C@H](C)/C=C/C=C/C=C/1C` [SIROLIMUS] the maximal growth inhibition (DIPGX37 [3]) was 67.7%, the “area under dose-response curve” value (HGGX39 [1]) was 58.5 and the “area under dose-response curve” value (DIPGX37 [2]) was 59.1. The “area under dose-response curve” value (HGGX6) was 62.6, the “area under dose-response curve” value (DIPGX29) was 47.3 and the “EC50 (log10 M)” value (DIPGX37 [4]) was -4.68.
For `CC1=C(CC(=O)O)c2cc(F)ccc2/C1=C\c1ccc([S+](C)[O-])cc1` (centres undefined) [SULINDAC], the “area under dose-response curve” value (HGGX39 [1]) was 4.57, the “area under dose-response curve” value (DIPGX37 [2]) was 16.9 and the “area under dose-response curve” value (HGGX6) was 6.88. The “area under dose-response curve” value (DIPGX29) was 3.44.
In the case of `CC1(C)CCC(C)(C)c2cc(NC(=O)c3ccc(C(=O)O)cc3)ccc21` [TAMIBAROTENE], the “area under dose-response curve” value (HGGX39 [1]) is reported as 44.5, the “area under dose-response curve” value (DIPGX37 [2]) is reported as 37.3 and the “area under dose-response curve” value (HGGX6) is reported as 28.3. For the same molecule, the “area under dose-response curve” value (DIPGX29) was 19.3.
For `CC/C(=C(\c1ccccc1)c1ccc(OCCN(C)C)cc1)c1ccccc1` [TAMOXIFEN], the maximal growth inhibition (DIPGX37 [3]) was 64.9%, the “area under dose-response curve” value (HGGX39 [1]) was 8.92 and the “area under dose-response curve” value (DIPGX37 [2]) was 50.8. For the same molecule, the “area under dose-response curve” value (HGGX6) was 12.2, the “area under dose-response curve” value (DIPGX29) was 8.96 and the “EC50 (log10 M)” value (DIPGX37 [4]) was -4.61.
In the case of `COc1cccc2c1c(O)c(C(=O)N(C)c1ccc(C(F)(F)F)cc1)c(=O)n2C` [TASQUINIMOD], the “area under dose-response curve” value (HGGX39 [1]) is reported as 0, the “area under dose-response curve” value (DIPGX37 [2]) is reported as 4.17 and the “area under dose-response curve” value (HGGX6) is reported as 0. For the same molecule, the “area under dose-response curve” value (DIPGX29) was 0.
With `Cn1nnc2c(C(N)=O)ncn2c1=O` [TEMOZOLOMIDE] the “area under dose-response curve” value (HGGX39 [1]) was 11.3, the “area under dose-response curve” value (DIPGX37 [2]) was 15.4 and the “area under dose-response curve” value (HGGX6) was 15.3. For the same molecule, the “area under dose-response curve” value (DIPGX29) was 5.13.
With `CS(=O)(=O)c1ccc([C@@H](O)[C@@H](CO)NC(=O)C(Cl)Cl)cc1` [THIAMPHENICOL] the maximal growth inhibition (HGGX39 [5]) was 26%, the “area under dose-response curve” value (HGGX39 [1]) was 52 and the “area under dose-response curve” value (DIPGX37 [2]) was 29.7. For the same molecule, the “area under dose-response curve” value (HGGX6) was 19.8, the “area under dose-response curve” value (DIPGX29) was 15.4 and the “EC50 (log10 M)” value (HGGX39 [6]) was -6.
`COc1cc2nccc(Oc3ccc(NC(=O)Nc4cc(C)on4)c(Cl)c3)c2cc1OC` [TIVOZANIB] was tested, and the “area under dose-response curve” value (HGGX39 [1]) was 21.7, the “area under dose-response curve” value (DIPGX37 [2]) was 31.3 and the “area under dose-response curve” value (HGGX6) was 42.5. The “area under dose-response curve” value (DIPGX29) was 14.6.
With `O=c1[nH]c(=O)n([C@H]2C[C@H](O)[C@@H](CO)O2)cc1C(F)(F)F` [TRIFLURIDINE] the “area under dose-response curve” value (HGGX39 [1]) was 21, the “area under dose-response curve” value (DIPGX37 [2]) was 22.2 and the “area under dose-response curve” value (HGGX6) was 3.99. The “area under dose-response curve” value (DIPGX29) was 7.68.
For `COc1cc(NCc2ccc3nc(N)nc(N)c3c2C)cc(OC)c1OC` [TRIMETREXATE], the “area under dose-response curve” value (HGGX39 [1]) was 28.7, the “area under dose-response curve” value (DIPGX37 [2]) was 11.6 and the “area under dose-response curve” value (HGGX6) was 31.9. The “area under dose-response curve” value (DIPGX29) was 51.
`CN1[C@@H]2CC[C@H]1C[C@@H](OC(=O)c1c[nH]c3ccccc13)C2` [TROPISETRON] was tested, and the “area under dose-response curve” value (HGGX39 [1]) was 19.5, the “area under dose-response curve” value (DIPGX37 [2]) was 33.4 and the “area under dose-response curve” value (HGGX6) was 10.2. The “area under dose-response curve” value (DIPGX29) was 18.7.
For `O=C(c1cncc(Br)c1)N1CCC(N2CCCC2)CC1` [UNC669], the “area under dose-response curve” value (HGGX39 [1]) was 0.456, the “area under dose-response curve” value (DIPGX37 [2]) was 20.1 and the “area under dose-response curve” value (HGGX6) was 0. The “area under dose-response curve” value (DIPGX29) was 0.
For `O=C(c1cccc(Br)c1)N1CCC(N2CCCC2)CC1` [UNC926], the “area under dose-response curve” value (HGGX39 [1]) was 8.09, the “area under dose-response curve” value (DIPGX37 [2]) was 0 and the “area under dose-response curve” value (HGGX6) was 8.91. The “area under dose-response curve” value (DIPGX29) was 8.49.
`O=C(c1ccc(C(=O)N2CCC(N3CCCC3)CC2)c(Nc2ccccc2)c1)N1CCC(N2CCCC2)CC1` [UNC1215] was tested, and the “area under dose-response curve” value (HGGX39 [1]) was 5.82, the “area under dose-response curve” value (DIPGX37 [2]) was 15 and the “area under dose-response curve” value (HGGX6) was 6.97. The “area under dose-response curve” value (DIPGX29) was 4.19.
For `O=C(NCC(=O)N1CCCCC1)Nc1ccc2nnsc2c1` [UNC2327], the “area under dose-response curve” value (HGGX39 [1]) was 5.31, the “area under dose-response curve” value (DIPGX37 [2]) was 3.13 and the “area under dose-response curve” value (HGGX6) was 10.6. The “area under dose-response curve” value (DIPGX29) was 8.94.
For `CCCS(=O)(=O)Nc1ccc(F)c(C(=O)c2c[nH]c3ncc(-c4ccc(Cl)cc4)cc23)c1F` [VEMURAFENIB], the “area under dose-response curve” value (HGGX39 [1]) was 7.32, the “area under dose-response curve” value (DIPGX37 [2]) was 2.53 and the “area under dose-response curve” value (HGGX6) was 8.94. For the same molecule, the “area under dose-response curve” value (DIPGX29) was 5.27.
With `Cc1c(F)ccc(C(=O)Nc2cc([N+](=O)[O-])ccc2N2CCN(C)CC2)c1Cl` [WDR5-C47] the “area under dose-response curve” value (HGGX39 [1]) was 5.16, the “area under dose-response curve” value (DIPGX37 [2]) was 27.1 and the “area under dose-response curve” value (HGGX6) was 7.74. The “area under dose-response curve” value (DIPGX29) was 4.98.
In the case of `Nc1ccn([C@H]2CC[C@@H](CO)O2)c(=O)n1` [ZALCITABINE], the “area under dose-response curve” value (HGGX39 [1]) is reported as 14.5, the “area under dose-response curve” value (DIPGX37 [2]) is reported as 14.2 and the “area under dose-response curve” value (HGGX6) is reported as 2.54. For the same molecule, the “area under dose-response curve” value (DIPGX29) was 13.5.
